From ChEMBL document CHEMBL4118222, “Synthesis of C-ring-modified blebbistatin derivatives and evaluation of their myosin II ATPase inhibitory potency” (Bioorg Med Chem Lett, 2018) come the findings set out here.

Activity calls are given as the source filed them. No cut-off for these calls is given here.

Test [1] is described as follows: Inhibition of rabbit skeletal muscle myosin 2 ATPase in presence of F-actin after 1 hr. Set-up: species or system Oryctolagus cuniculus.
The species entered for test [2] is Oryctolagus cuniculus. Description: Inhibition of rabbit skeletal muscle myosin 2 ATPase in presence of F-actin at 100 uM after 1 hr.

By IC50 is commonly meant the concentration that gives 50% inhibition.

For the compound `Cc1ccc2c(c1)C(=O)[C@]1(O)C[C@H](CO)N(c3ccccc3)C1=N2` (racemic), the IC50 in test [1] is 75 µM.

Consider `Cc1ccc2c(c1)C(=O)[C@]1(O)CCN(c3ccccc3)C1=N2`, for which the IC50 in test [1] was 0.95 µM.

On to `Cc1ccc2c(c1)C(=O)[C@]1(O)C[C@@H](CO)N(c3ccccc3)C1=N2` (racemic), for which, in test [2], the inhibition result was “inactive”. The same measure, in the same setting: the entry for `C=CCOCC1CC2(O)C(=O)c3cc(C)ccc3N=C2N1c1ccccc1` (mixture of isomers) is “inactive”.
